Laboratory results published in ChEMBL document CHEMBL3784996, “Copper-catalyzed three-component synthesis of aminonaphthoquinone-sulfonylamidine conjugates and in vitro evaluation of their antiproliferative activity” (Bioorg Med Chem Lett, 2016).

Legend:
[1] = system: HEK293; assay: Cytotoxicity against HEK293 cells after 48 hrs by MTT assay; assay type: cell-based; conditions: Homo sapiens, HEK293, 48 h
[2] = system: A549; assay: Cytotoxicity against human A549 cells after 48 hrs by MTT assay; assay type: functional, cell-based; conditions: A549, 48 h
[3] = Cytotoxicity against human DU145 cells after 48 hrs by MTT assay; assay type: functional, cell-based; conditions: DU-145, 48 h
[4] = system: HeLa; assay: Cytotoxicity against human HeLa cells after 48 hrs by MTT assay; assay type: functional, cell-based
[5] = system: MCF7; assay: Cytotoxicity against human MCF7 cells after 48 hrs by MTT assay; assay type: functional, cell-based; conditions: MCF7, 48 h
[6] = system: MCF7; assay: Induction of cell cycle arrest in human MCF7 cells assessed as accumulation at sub G1 phase at 2.5 uM after 48 hrs by propidium iodide staining based flow cytometric analysis (reference value: 2.58 %); assay type: functional
[7] = system: MCF7; assay: Induction of cell cycle arrest in human MCF7 cells assessed as accumulation at sub G1 phase at 5 uM after 48 hrs by propidium iodide staining based flow cytometric analysis (reference value: 2.58 %); assay type: functional
[8] = system: MCF7; assay: Induction of cell cycle arrest in human MCF7 cells assessed as accumulation at G0/G1 phase at 2.5 uM after 48 hrs by propidium iodide staining based flow cytometric analysis (reference value: 62.95 %); assay type: functional
[9] = system: MCF7; assay: Induction of cell cycle arrest in human MCF7 cells assessed as accumulation at G0/G1 phase at 5 uM after 48 hrs by propidium iodide staining based flow cytometric analysis (reference value: 62.95 %); assay type: functional
[10] = system: MCF7; assay: Induction of cell cycle arrest in human MCF7 cells assessed as accumulation at S phase at 2.5 uM after 48 hrs by propidium iodide staining based flow cytometric analysis (reference value: 5.04 %); assay type: functional
[11] = system: MCF7; assay: Induction of cell cycle arrest in human MCF7 cells assessed as accumulation at S phase at 5 uM after 48 hrs by propidium iodide staining based flow cytometric analysis (reference value: 5.04 %); assay type: functional
[12] = system: MCF7; assay: Induction of cell cycle arrest in human MCF7 cells assessed as accumulation at G2/M phase at 2.5 uM after 48 hrs by propidium iodide staining based flow cytometric analysis (reference value: 28.45 %); assay type: functional
[13] = system: MCF7; assay: Induction of cell cycle arrest in human MCF7 cells assessed as accumulation at G2/M phase at 5 uM after 48 hrs by propidium iodide staining based flow cytometric analysis (reference value: 28.45 %); assay type: functional

Structure (SMILES) | IC50 [1] | IC50 [2] | IC50 [3] | IC50 [4] | IC50 [5] | Activity [6] | Activity [7] | Activity [8] | Activity [9] | Activity [10] | Activity [11] | Activity [12] | Activity [13]
C#CCNC1=CC(=O)c2ccccc2C1=O | 77.6 µM | 47.3 µM | 39.8 µM | 30.9 µM | 24.1 µM | – | – | – | – | – | – | – | –
Cc1ccc(S(=O)(=O)/N=C(/CCNC2=CC(=O)c3ccccc3C2=O)Nc2cc(F)c(F)c(F)c2)cc1 | 82.6 µM | 10.2 µM | 12.6 µM | 8.58 µM | 6.61 µM | – | – | – | – | – | – | – | –
Cc1ccc(S(=O)(=O)/N=C(/CCNC2=CC(=O)c3ccccc3C2=O)Nc2ccc(F)c(F)c2)cc1 | 55.2 µM | 16.7 µM | 12.9 µM | 8.79 µM | 9.42 µM | – | – | – | – | – | – | – | –
Cc1ccc(S(=O)(=O)/N=C(/CCNC2=CC(=O)c3ccccc3C2=O)Nc2ccccc2[N+](=O)[O-])cc1 | 69.6 µM | 5.01 µM | 7.59 µM | 3.31 µM | 3.09 µM | 2.5% | 2.6% | 63.91% | 68.18% | 3.11% | 3.09% | 27.47% | 23.6%
Cc1ccc(S(=O)(=O)/N=C(/CCNC2=CC(=O)c3ccccc3C2=O)Nc2ccccc2I)cc1 | 49.4 µM | 24.7 µM | 11.7 µM | 19.1 µM | 15.5 µM | – | – | – | – | – | – | – | –
COc1ccc(N/C(CCNC2=CC(=O)C(C)=C(C)C2=O)=N\S(=O)(=O)c2ccc(C)cc2)cc1OC | 79.4 µM | 15.5 µM | 14 µM | 10.5 µM | 8.71 µM | – | – | – | – | – | – | – | –
Cc1ccc(S(=O)(=O)/N=C(\N)CCNC2=CC(=O)c3ccccc3C2=O)cc1 | 63.1 µM | 26.6 µM | 30.9 µM | 24.6 µM | 18.6 µM | – | – | – | – | – | – | – | –
Cc1ccc(S(=O)(=O)/N=C(/CCNC2=CC(=O)c3ccccc3C2=O)Nc2ccc(F)cc2)cc1 | 55.1 µM | 9.33 µM | 12.2 µM | 5.89 µM | 4.26 µM | – | – | – | – | – | – | – | –
COc1ccc(N/C(CCNC2=CC(=O)c3ccccc3C2=O)=N\S(=O)(=O)c2ccc(C)cc2)cc1 | 35.1 µM | 25.5 µM | 12 µM | 7.59 µM | 6.03 µM | – | – | – | – | – | – | – | –
Cc1ccc(S(=O)(=O)/N=C(/CCNC2=CC(=O)c3ccccc3C2=O)Nc2cccc(C(F)(F)F)c2)cc1 | 91.5 µM | 78.5 µM | 84.1 µM | 77.6 µM | 89.1 µM | – | – | – | – | – | – | – | –
Cc1ccc(S(=O)(=O)/N=C(/CCNC2=CC(=O)c3ccccc3C2=O)Nc2ccc(Cl)cc2Cl)cc1 | 41.9 µM | 32.9 µM | 18.6 µM | 20.5 µM | 17 µM | – | – | – | – | – | – | – | –
COc1ccc(N/C(CCNC2=C(Br)C(=O)c3ccccc3C2=O)=N\S(=O)(=O)c2ccc(C)cc2)cc1OC | 35.3 µM | 17.5 µM | 29.6 µM | 5.37 µM | 6.61 µM | – | – | – | – | – | – | – | –
Cc1ccc(S(=O)(=O)/N=C(/CCNC2=CC(=O)c3ccccc3C2=O)NCCc2c[nH]c3ccccc23)cc1 | 42.5 µM | 17 µM | 28.4 µM | 9.33 µM | 7.76 µM | – | – | – | – | – | – | – | –
Cc1ccc(S(=O)(=O)/N=C(/CCNC2=CC(=O)c3ccccc3C2=O)NC2CCCCC2)cc1 | 50.1 µM | 14.7 µM | 16.6 µM | 9.77 µM | 7.58 µM | – | – | – | – | – | – | – | –
COc1ccc(N/C(CCNC2=CC(=O)c3ccccc3C2=O)=N\S(=O)(=O)c2ccc(C(C)(C)C)cc2)cc1OC | 62.3 µM | 16.2 µM | 14.5 µM | 11.5 µM | 8.71 µM | – | – | – | – | – | – | – | –
COc1cc(N/C(CCNC2=CC(=O)c3ccccc3C2=O)=N\S(=O)(=O)c2ccc(C)cc2)cc(OC)c1OC | 75.8 µM | 7.94 µM | 9.33 µM | 3.39 µM | 3.05 µM | 1.86% | 3.01% | 64.17% | 84.55% | 4.14% | 5.19% | 27.51% | 5.23%
Cc1ccc(S(=O)(=O)/N=C(/CCNC2=CC(=O)c3ccccc3C2=O)Nc2ccc(Cl)cc2)cc1 | 65.4 µM | 29.9 µM | 32.4 µM | 13.4 µM | 7.08 µM | – | – | – | – | – | – | – | –
Cc1ccc(S(=O)(=O)/N=C(/CCNC2=CC(=O)c3ccccc3C2=O)NCc2ccccc2)cc1 | 80.2 µM | 7.41 µM | 9.12 µM | 3.98 µM | 3.63 µM | – | – | – | – | – | – | – | –
Cc1ccc(S(=O)(=O)/N=C(/CCNC2=CC(=O)c3ccccc3C2=O)Nc2cccc(C)c2)cc1 | 56.2 µM | 18.7 µM | 10.2 µM | 9.06 µM | 8.12 µM | – | – | – | – | – | – | – | –
COc1ccc(N/C(CCNC2=CC(=O)c3ccccc3C2=O)=N\S(=O)(=O)c2ccc(C)cc2)c(OC)c1 | 83 µM | 126 µM | 67.2 µM | 67.6 µM | 30.2 µM | – | – | – | – | – | – | – | –
Cc1ccc(S(=O)(=O)/N=C(/CCNC2=CC(=O)c3ccccc3C2=O)NC(C)C)cc1 | 71.6 µM | 44.3 µM | 28.5 µM | 30.2 µM | 16.5 µM | – | – | – | – | – | – | – | –
COc1ccc(N/C(CCNC2=CC(=O)c3ccccc3C2=O)=N\S(=O)(=O)c2ccc(C)cc2)cc1OC | 60.6 µM | 20.4 µM | 17.8 µM | 14.5 µM | 12.3 µM | – | – | – | – | – | – | – | –
COc1cccc2c1C(=O)c1c(O)c3c(c(O)c1C2=O)C[C@@](O)(C(=O)CO)C[C@@H]3O[C@H]1C[C@H](N)[C@H](O)[C@H](C)O1 [DOXORUBICIN] | – | 2.34 µM | 1.08 µM | 1.59 µM | – | – | – | – | – | – | – | – | –
